Laboratory results: patent US20210369684A1 (MOUNT TAM THERAPEUTICS, INC., priority 2018, published 2021)
Values joined by “and” are separate entries in the source; they are usually repeats but may differ in a detail not shown here. Equal values may be shown once.

Experiments:
[1] = Oral bioavailability; settings: in vivo
Description: In order to measure bioavailability in vivo, a compound may be administered to a test animal (e.g. mouse or rat) both intraperitoneally (i.p.) or intravenously (i.v.) and orally (p.o.) and blood samples are taken at regular intervals to examine how the plasma concentration of the drug varies over time. The time course of plasma concentration over time can be used to calculate the absolute bioavailability of the compound as a percentage using standard models. An example of a typical protocol is described below. […] The time-course of plasma or whole blood concentrations can then be used to derive key parameters such as the area under the plasma or blood concentration-time curve (AUC-which is directly proportional to the total amount of unchanged drug that reaches the systemic circulation), the maximum (peak) plasma or blood drug concentration, the time at which maximum plasma or blood drug concentration occurs (peak time), additional factors which are used in the accurate determination of bioavailability include: the compound's terminal half-life, total body clearance, steady-state volume of distribution and F %. These parameters are then analyzed by non-compartmental or compartmental methods to give a calculated percentage bioavailability, for an example of this type of method see Gallant-[…] et al, 2000 and […] et al, 1998, and references therein.

[2] = Whole blood concentrations after IP administration to mice (LC-MS/MS); format: in vivo, mouse
Description: Shown below are whole blood concentrations following administration of the compound of Formula II to mice. The compound of Formula II was administered to mice at 2 mg/kg or 10 mg/kg for three days and the concentration of the compound in whole blood determined. These determinations were made using protein precipitation, liquid chromatography (LC), and mass spectrometry (MS/MS). Ten μl aliquots of whole blood and matrix calibration standards were distributed in a 96-well plate; 10 μl aliquots of blank matrix for matrix blanks and control blanks were included as controls. Ten μl of water was added to each sample followed by vortexing. One hundred sixty […] of internal standard was added to each sample except the matrix blanks; 160 μl 70:30 water:acetonitrile (ACN) was added to matrix blanks. This was followed by a […]. One hundred fifty μl of the resultant supernatant was then transferred to a new 96-well plate and the samples blown to dryness at 35° C. The resultant product was then reconstituted with 90 μl ACN.

With `CO[C@H]1C[C@@H]2CC[C@@H](C)[C@@](O)(C2)C(=O)C(=O)N2CCCC[C@H]2C(=O)O[C@H]([C@H](C)C[C@H]2C[C@H]3C[C@@H]2C[C@@H]3O)CC(=O)[C@H](C)/C=C(\C)[C@@H](O)[C@@H](OC)C(=O)[C@H](C)C[C@H](C)/C=C/C=C/C=C/1C` [Formula II, C37-[(1R,2S,4R,5S)-5-hyhroxybicyclo[2.2.1]heptane] rapamycin] the bioavailability [1] was roughly 47%, the “Formula II Concentrations in Mouse Whole Blood” value ([2]; 2 mg/kg IP QD x 3 days, Day 1, 1.00 h, individual animals 7, 8, 9) was 452 ng/mL and 380 ng/mL and 317 ng/mL and the “Formula II Concentrations in Mouse Whole Blood, Mean” value (“Formula II Concentrations … Mean” below) ([2]; 2 mg/kg IP QD x 3 days, Day 1, 1.00 h) was 383 ng/mL. The “Formula II Concentrations in Mouse Whole Blood” value ([2]; 2 mg/kg IP QD x 3 days, Day 1, 2.00 h, individual animals 7, 8, 9) was 415 ng/mL (2×) and 378 ng/mL, the “Formula II Concentrations … Mean” value ([2]; 2 mg/kg IP QD x 3 days, Day 1, 2.00 h) was 403 ng/mL and the “Formula II Concentrations in Mouse Whole Blood” value ([2]; 2 mg/kg IP QD x 3 days, Day 1, 6.00 h, individual animals 7, 8, 9) was 382 ng/mL and 520 ng/mL and 490 ng/mL. For the same molecule, the “Formula II Concentrations … Mean” value ([2]; 2 mg/kg IP QD x 3 days, Day 1, 6.00 h) was 464 ng/mL, the “Formula II Concentrations in Mouse Whole Blood” value ([2]; 2 mg/kg IP QD x 3 days, Day 1, 24.0 h, individual animals 7, 8, 9) was 12.2 ng/mL and 18.4 ng/mL and 14.7 ng/mL and the “Formula II Concentrations … Mean” value ([2]; 2 mg/kg IP QD x 3 days, Day 1, 24.0 h) was 15.1 ng/mL. The “Formula II Concentrations in Mouse Whole Blood” value ([2]; 2 mg/kg IP QD x 3 days, Day 2, 1.00 h, individual animals 7, 8, 9) was 481 ng/mL and 208 ng/mL and 524 ng/mL, the “Formula II Concentrations … Mean” value ([2]; 2 mg/kg IP QD x 3 days, Day 2, 1.00 h) was 404 ng/mL and the “Formula II Concentrations in Mouse Whole Blood” value ([2]; 2 mg/kg IP QD x 3 days, Day 2, 2.00 h, individual animals 7, 8, 9) was 501 ng/mL and 233 ng/mL and 570 ng/mL. For the same molecule, the “Formula II Concentrations … Mean” value ([2]; 2 mg/kg IP QD x 3 days, Day 2, 2.00 h) was 435 ng/mL, the “Formula II Concentrations in Mouse Whole Blood” value ([2]; 2 mg/kg IP QD x 3 days, Day 2, 6.00 h, individual animals 7, 8, 9) was 553 ng/mL and 632 ng/mL and 552 ng/mL and the “Formula II Concentrations … Mean” value ([2]; 2 mg/kg IP QD x 3 days, Day 2, 6.00 h) was 579 ng/mL. The “Formula II Concentrations in Mouse Whole Blood” value ([2]; 2 mg/kg IP QD x 3 days, Day 2, 24.0 h, individual animals 7, 8, 9) was 15.3 ng/mL and 80.6 ng/mL and 35.2 ng/mL, the “Formula II Concentrations … Mean” value ([2]; 2 mg/kg IP QD x 3 days, Day 2, 24.0 h) was 43.7 ng/mL and the “Formula II Concentrations in Mouse Whole Blood” value ([2]; 2 mg/kg IP QD x 3 days, Day 3, 1.00 h, individual animals 7, 8, 9) was 628 ng/mL and 726 ng/mL and 600 ng/mL. The “Formula II Concentrations … Mean” value ([2]; 2 mg/kg IP QD x 3 days, Day 3, 1.00 h) was 651 ng/mL, the “Formula II Concentrations in Mouse Whole Blood” value ([2]; 2 mg/kg IP QD x 3 days, Day 3, 2.00 h, individual animals 7, 8, 9) was 478 ng/mL and 489 ng/mL and 535 ng/mL and the “Formula II Concentrations … Mean” value ([2]; 2 mg/kg IP QD x 3 days, Day 3, 2.00 h) was 501 ng/mL. The “Formula II Concentrations in Mouse Whole Blood” value ([2]; 2 mg/kg IP QD x 3 days, Day 3, 6.00 h, individual animals 7, 8, 9) was 416 ng/mL and 745 ng/mL and 604 ng/mL, the “Formula II Concentrations … Mean” value ([2]; 2 mg/kg IP QD x 3 days, Day 3, 6.00 h) was 588 ng/mL and the “Formula II Concentrations in Mouse Whole Blood” value ([2]; 2 mg/kg IP QD x 3 days, Day 3, 24.0 h, individual animals 7, 8, 9) was 17.6 ng/mL and 59.6 ng/mL and 48.6 ng/mL. For the same molecule, the “Formula II Concentrations … Mean” value ([2]; 2 mg/kg IP QD x 3 days, Day 3, 24.0 h) was 41.9 ng/mL, the “concentrations in whole blood over time (in words)” value ([2]; 2 mg/kg or 10 mg/kg IP QD for three days, mice) was “sufficient concentrations in whole blood over time” and the “Formula II Concentrations in Mouse Whole Blood” value ([2]; 10 mg/kg IP QD x 3 days, Day 1, 1.00 h, individual animals 10, 11, 12) was 560 ng/mL and 641 ng/mL and 769 ng/mL. For the same molecule, the “Formula II Concentrations … Mean” value ([2]; 10 mg/kg IP QD x 3 days, Day 1, 1.00 h) was 657 ng/mL and the “Formula II Concentrations in Mouse Whole Blood” value ([2]; 10 mg/kg IP QD x 3 days, Day 1, 2.00 h, individual animals 10, 11, 12) was 793 ng/mL.
